# Reference: PMC8697972, “New Auranofin Analogs with Antibacterial Properties against Burkholderia Clinical Isolates” (Antibiotics, 2021)
# Like-named read-outs stand apart in the source and are kept apart here. Marks after values point to notes of the source that are not given here.
# Columns and labels:
# [1] = test system: B. cenocepacia K56-2 persister cells; test: Time kill of persister cells generated with ciprofloxacin; format: cell-based, Burkholderia cenocepacia; conditions: for killing of ciprofloxacin-generated persister cells: in PBS, 3 h, MS-40S/MS-40 2× and 4× MIC, ciprofloxacin 5× MIC
# B. contaminans MF16 = format: cell-based, Burkholderia contaminans
# B. ubonensis LMG 20358 = format: cell-based, Burkholderia ubonensis
# B. lata BCC6 = format: cell-based, Burkholderia lata
# B. multivorans ATCC17616 = format: cell-based, Burkholderia multivorans
# B. cenocepacia K56-2 [2] = test: Persister frequency assay; conditions: 24 h
# B. contaminans FFH-4004 = format: cell-based, Burkholderia contaminans
# B. dolosa CEP021 = format: cell-based, Burkholderia dolosa
# [3] = test system: B. contaminans FFH-2050MA; format: cell-based, Burkholderia contaminans
# B. cenocepacia 140485 = format: cell-based, Burkholderia cenocepacia
# B. cenocepacia K56-2 [4] = format: cell-based, Burkholderia cenocepacia; conditions: 18 h
# C. elegans DH26 = conditions: for Percent survival of C. elegans: 24 h; for Survival100/MIC Ratio: highest concentration with 100 percent survival divided by the compound's MIC
# [5] = test system: Acinetobacter baumannii ATCC 17978; test: MBC (minimum bactericidal concentration)
# [6] = test system: Stenotrophomonas maltophilia DH57; test: MBC (minimum bactericidal concentration)
# Escherichia coli 120955 [7] = format: cell-based
# B. cenocepacia K56-2 [8] = test: MIC in 50% human serum; format: cell-based, Burkholderia cenocepacia
# [9] = test system: Galleria mellonella larvae; test: Galleria toxicity
# B. pseudomallei MSHR465a = format: cell-based, Burkholderia pseudomallei
# B. cenocepacia K56-2 [10] = test: In vivo antibiotic activity in infected C. elegans; conditions: C. elegans infected with B. cenocepacia K56-2, data not shown
# [11] = test system: Burkholderia cenocepacia K56-2; test: MBC (minimum bactericidal concentration); format: cell-based; conditions: MBC determined from exponential time kill curve
# [12] = test system: Stenotrophomonas maltophilia K279a; format: cell-based
# [13] = test system: Achromobacter xylosoxidans ACH03; format: cell-based
# [14] = test system: B. pseudomallei HBPUB10134a; format: cell-based, Burkholderia pseudomallei
# [15] = test system: Achromobacter xylosoxidans ACH03; test: MBC (minimum bactericidal concentration)
# [16] = test system: Escherichia vulneris CEP511; test: MBC (minimum bactericidal concentration)
# [17] = test system: Acinetobacter baumannii ATCC 17978; format: cell-based
# [18] = test system: Burkholderia cenocepacia K56-2; test: Time kill assays (exponential and stationary phase); conditions: for killing of stationary (non-replicating) phase cells: 4× MIC (DOX 4× MIC)
# [19] = test system: B. mallei China 5 (NBL 4); format: cell-based, Burkholderia mallei
# [20] = test system: Stenotrophomonas maltophilia K279a; test: MBC (minimum bactericidal concentration); format: cell-based
# [21] = test system: Staphylococcus aureus ATCC 27700; format: cell-based
# B. pseudomallei 1710b = format: cell-based, Burkholderia pseudomallei
# [22] = test system: Staphylococcus aureus 107094; format: cell-based
# [23] = test system: Staphylococcus aureus ATCC 27700; test: MBC (minimum bactericidal concentration)
# Escherichia coli 120955 [24] = test: MBC (minimum bactericidal concentration)
# [25] = test system: Stenotrophomonas maltophilia DH57; format: cell-based
# [26] = test system: B. mallei China 7 (NBL 7); format: cell-based, Burkholderia mallei
# [27] = test system: Staphylococcus aureus 107094; test: MBC (minimum bactericidal concentration)
# [28] = test system: Escherichia vulneris CEP511; format: cell-based
# [29] = test system: B. mallei Ivan (NCTC 10230); format: cell-based, Burkholderia mallei
# [30] = test system: Klebsiella pneumoniae 120310; test: MBC (minimum bactericidal concentration)
# B. cenocepacia K56-2 [31] = test: In vivo antibiotic activity in infected G. mellonella; conditions: G. mellonella infected with B. cenocepacia K56-2, data not shown
# [32] = test system: Klebsiella pneumoniae 120310; format: cell-based
# members of the Bcc = test: MIC, summary over Bcc panel; format: cell-based, Burkholderia cepacia complex
# [33] = Burkholderia ubonensis, LMG20358
# [34] = Burkholderia multivorans, ATCC17616
# [35] = Burkholderia contaminans, FFH4004
# [36] = Burkholderia contaminans, FFH2050MA
# [37] = Burkholderia cenocepacia, 140485
compound,measurement,setting,value
"O=C(O)c1cn(C2CC2)c2cc(N3CCNCC3)c(F)cc2c1=O [ciprofloxacin, reference compound]",killing of ciprofloxacin-generated persister cells,[1],not killed
"C[C@@H](O)[C@H]1C(=O)N2C(C(=O)O)=C(S[C@@H]3CN[C@H](C(=O)N(C)C)C3)[C@H](C)[C@H]12 [MEM, meropenem, reference compound]",MIC,"B. contaminans MF16; Burkholderia contaminans, MF16",8 µg/mL
same,MIC,B. ubonensis LMG 20358; [33],16 µg/mL
same,MIC,"B. lata BCC6; Burkholderia lata, BCC6",4 µg/mL
same,MIC,B. multivorans ATCC17616; [34],4 µg/mL
same,persister frequency (percent survival),B. cenocepacia K56-2 [2]; 5× MIC,low amount of persisters
same,persister frequency (percent survival),B. cenocepacia K56-2 [2]; 10× MIC,low amount of persisters
same,persister frequency (percent survival),"B. cenocepacia K56-2 [2]; 5× and 10× MIC tested, concentration not told apart",5–7%
same,MIC,B. contaminans FFH-4004; [35],8 µg/mL
same,MIC,"B. dolosa CEP021; Burkholderia dolosa, CEP021",8 µg/mL
same,MIC,[3]; [36],4 µg/mL
same,MIC,B. cenocepacia 140485; [37],16 µg/mL
same,MIC,B. cenocepacia K56-2 [4]; Burkholderia cenocepacia,16 µg/mL
same,Percent survival of C. elegans,C. elegans DH26; 4 μg/mL,100%
same,Percent survival of C. elegans,C. elegans DH26; 8 μg/mL,100%
same,Percent survival of C. elegans,C. elegans DH26; 16 μg/mL,100%
same,Percent survival of C. elegans,C. elegans DH26; 32 μg/mL,100%
same,Percent survival of C. elegans,C. elegans DH26; 64 μg/mL,100%
same,Percent survival of C. elegans,C. elegans DH26; 128 μg/mL,97.4%
same,Percent survival of C. elegans,C. elegans DH26; 256 μg/mL,93.2%
same,Survival100/MIC Ratio,C. elegans DH26,4
same,Survival100/MIC Ratio,C. elegans DH26; listed as meropenem,four
CC(O)C[S][Au-][P+](C)(C)C (centres unmarked) [MS-40S],MIC,B. contaminans MF16; B. contaminans MF16,8 µg/mL
same,MBC,[5],8 µg/mL
same,MBC,[6],8 µg/mL
same,MIC,Escherichia coli 120955 [7],4 µg/mL
same,MIC in the presence of 50% human serum,B. cenocepacia K56-2 [8],128 µg/mL
same,Galleria Survival,"[9]; 1.0 mg/kg, 24 h",96.7%
same,Galleria Survival,"[9]; 1.0 mg/kg, 48 h",86.7%
same,Galleria Survival,"[9]; 1.0 mg/kg, 72 h",86.7%
same,Galleria Survival,"[9]; 2.0 mg/kg, 24 h",83.3%
same,Galleria Survival,"[9]; 2.0 mg/kg, 48 h",83.3%
same,Galleria Survival,"[9]; 2.0 mg/kg, 72 h",83.3%
same,Galleria Survival,"[9]; 5.0 mg/kg, 24 h",93.3%
same,Galleria Survival,"[9]; 5.0 mg/kg, 48 h",86.7%
same,Galleria Survival,"[9]; 5.0 mg/kg, 72 h",86.7%
same,percent survival of Galleria larvae,[9]; 10 mg/kg,≥ 80%
same,Galleria Survival,"[9]; 10.0 mg/kg, 24 h",90.0%
same,Galleria Survival,"[9]; 10.0 mg/kg, 48 h",76.7%
same,Galleria Survival,"[9]; 10.0 mg/kg, 72 h",76.7%
same,MIC,B. pseudomallei MSHR465a,4 µg/mL
same,in vivo antibiotic activity,B. cenocepacia K56-2 [10],did not observe in vivo antibiotic activity
same,MBC,[11],>32 * μg/mL
same,MIC,[12],2 µg/mL
same,MIC,[13],16 µg/mL
same,MIC,[14],2 µg/mL
same,MBC,[15],32 µg/mL
same,MBC,[16],4 µg/mL
same,MIC,[17],2 µg/mL
same,reduction of the culture in time kill,"[18]; 4× MIC, exponential phase",approximately three
same,killing of stationary (non-replicating) phase cells,"[18]; time kill, 1×, 2×, 6 h",bactericidal
same,killing of exponential (replicating) phase cells,"[18]; time kill, 1×, 2×, 4× MIC, 6 h",bactericidal
same,MIC,[19],0.12 µg/mL
same,MBC,[20],8 µg/mL
same,MIC,[21],0.5 µg/mL
same,MIC,B. pseudomallei 1710b,4 µg/mL
same,MIC,[22],0.25 µg/mL
same,MBC,[23],2 µg/mL
same,MBC,Escherichia coli 120955 [24],64 µg/mL
same,MIC,B. ubonensis LMG 20358; B. ubonensis LMG 20358,16 µg/mL
same,MIC,[25],2 µg/mL
same,MIC,B. lata BCC6; B. lata BCC6,8 µg/mL
same,MIC,B. multivorans ATCC17616; B. multivorans ATCC17616,16 µg/mL
same,persister frequency (percent survival),B. cenocepacia K56-2 [2]; 5× MIC,very low persister frequency
same,persister frequency (percent survival),B. cenocepacia K56-2 [2]; 10× MIC,no persisters
same,MIC,B. contaminans FFH-4004; B. contaminans FFH-4004,16 µg/mL
same,MIC,[26],0.25 µg/mL
same,MBC,[27],1 µg/mL
same,MIC,[28],4 µg/mL
same,MIC,[29],0.12 µg/mL
same,MBC,[30],8 µg/mL
same,MIC,B. dolosa CEP021; B. dolosa CEP021,32 µg/mL
same,MIC,[3]; B. contaminans FFH-2050MA,16 µg/mL
same,further reduction of ciprofloxacin-generated persister population,[1]; enriched persister population,1–2 log10 CFU/mL
same,killing of ciprofloxacin-generated persister cells,[1],killed to a concentration below/close to the limit of detection
same,MIC,B. cenocepacia 140485; B. cenocepacia 140485,16 µg/mL
same,in vivo antibiotic activity,B. cenocepacia K56-2 [31],did not observe in vivo antibiotic activity
same,MIC,"B. cenocepacia K56-2 [4]; B. cenocepacia K56-2, CAMHB, 37 °C",8 µg/mL
same,Percent survival of C. elegans,C. elegans DH26; 4 μg/mL,100%
same,Percent survival of C. elegans,C. elegans DH26; 8 μg/mL,100%
same,Percent survival of C. elegans,C. elegans DH26; 16 μg/mL,100%
same,Percent survival of C. elegans,C. elegans DH26; 32 μg/mL,100%
same,Percent survival of C. elegans,C. elegans DH26; 64 μg/mL,100%
same,Percent survival of C. elegans,C. elegans DH26; 128 μg/mL,97.6%
same,Percent survival of C. elegans,C. elegans DH26; 256 μg/mL,85.7%
same,Survival100/MIC Ratio,C. elegans DH26,8
same,MIC,[32],4 µg/mL
"C[C@H]1c2cccc(O)c2C(=O)C2=C(O)[C@]3(O)C(=O)C(C(N)=O)=C(O)[C@@H](N(C)C)[C@@H]3[C@@H](O)[C@@H]21 [DOX, doxycycline, reference compound]",MIC,"B. contaminans MF16; Burkholderia contaminans, MF16",16 µg/mL
same,Galleria Survival,"[9]; 1.0 mg/kg, 24 h",96.7%
same,Galleria Survival,"[9]; 1.0 mg/kg, 48 h",96.7%
same,Galleria Survival,"[9]; 1.0 mg/kg, 72 h",96.7%
same,Galleria Survival,"[9]; 2.0 mg/kg, 24 h",93.3%
same,Galleria Survival,"[9]; 2.0 mg/kg, 48 h",93.3%
same,Galleria Survival,"[9]; 2.0 mg/kg, 72 h",93.3%
same,Galleria Survival,"[9]; 5.0 mg/kg, 24 h",93.3%
same,Galleria Survival,"[9]; 5.0 mg/kg, 48 h",90.0%
same,Galleria Survival,"[9]; 5.0 mg/kg, 72 h",90.0%
same,Galleria Survival,"[9]; 10.0 mg/kg, 24 h",93.3%
same,Galleria Survival,"[9]; 10.0 mg/kg, 48 h",93.3%
same,Galleria Survival,"[9]; 10.0 mg/kg, 72 h",93.3%
same,MIC,"members of the Bcc; Burkholderia cepacia, read-out: MIC values against some isolates from the Bcc, lowest values, some isolates",1 µg/mL
same,MIC values against some isolates from the Bcc,"members of the Bcc; lowest values, some isolates",2 µg/mL
same,killing of stationary (non-replicating) phase cells,"[18]; time kill, 1×, 2×, 6 h",unable to kill cells
same,MIC,B. ubonensis LMG 20358; [33],4 µg/mL
same,MIC,"B. lata BCC6; Burkholderia lata, BCC6",4 µg/mL
same,MIC,B. multivorans ATCC17616; [34],2 µg/mL
same,MIC,B. contaminans FFH-4004; [35],8 µg/mL
same,MIC,"B. dolosa CEP021; Burkholderia dolosa, CEP021",16 µg/mL
same,MIC,[3]; [36],2 µg/mL
same,MIC,B. cenocepacia 140485; [37],1 µg/mL
same,MIC,B. cenocepacia K56-2 [4]; Burkholderia cenocepacia,4 µg/mL
same,Percent survival of C. elegans,C. elegans DH26; 4 μg/mL,100%
same,Percent survival of C. elegans,C. elegans DH26; 8 μg/mL,97.4%
same,Percent survival of C. elegans,C. elegans DH26; 16 μg/mL,100%
same,Percent survival of C. elegans,C. elegans DH26; 32 μg/mL,98.2%
same,Percent survival of C. elegans,C. elegans DH26; 64 μg/mL,100%
same,Percent survival of C. elegans,C. elegans DH26; 128 μg/mL,91.5%
same,Percent survival of C. elegans,C. elegans DH26; 256 μg/mL,79.5%
same,Survival100/MIC Ratio,C. elegans DH26,16
